Test results taken from the NIST ThermoML archive (doi:10.1016/j.tca.2012.08.009).

Key:
[1] = wn = mass fraction of the nth substance listed; settings: 298.15 K, 101 kPa, Liquid; for viscosity: Capillary tube (Ostwald / Ubbelohde) method; for speed of sound: Linear variable-path acoustic interferometer; for mass density: Vibrating tube method
[2] = refractive index (Na D-line) (dimensionless); wn = mass fraction of the nth substance listed; settings: 298.15 K, 101 kPa, Liquid, Standard Abbe refractometry
[3] = refractive index (Na D-line) (dimensionless); cn = amount concentration of the nth substance listed, in mol/dm3; settings: 298.15 K, 101 kPa, Liquid, Standard Abbe refractometry
[4] = cn = amount concentration of the nth substance listed, in mol/dm3; settings: 298.15 K, 101 kPa, Liquid; for molar conductivity: Alternating current cell with electrodes; for viscosity: Capillary tube (Ostwald / Ubbelohde) method; for speed of sound: Linear variable-path acoustic interferometer; for mass density: Vibrating tube method
[5] = refractive index (Na D-line) (dimensionless); settings: 298.15 K; 101.33 kPa; Liquid; Standard Abbe refractometry
[6] = 298.15 K, 101 kPa, Liquid; for viscosity: Capillary tube (Ostwald / Ubbelohde) method; for speed of sound: Linear variable-path acoustic interferometer; for mass density: Vibrating tube method

CC#N [acetonitrile] + C1COCO1
w1 = 1
Settings	mass density [kg/m3]	refractive index	speed of sound [m/s]	viscosity [mPa·s]
[1]	776.74	–	1281.5	0.343
[2]	–	1.3418	–	–

[Cl-].[Li+] [lithium chloride] + C1COCO1
Settings	mass density [kg/m3]	molar conductivity [S·m2/mol]	refractive index	speed of sound [m/s]	viscosity [mPa·s]
[3], c1 = 0.0142	–	–	1.398	–	–
[3], c1 = 0.0284	–	–	1.3988	–	–
[3], c1 = 0.0426	–	–	1.3994	–	–
[3], c1 = 0.0568	–	–	1.4	–	–
[3], c1 = 0.071	–	–	1.4005	–	–
[3], c1 = 0.0852	–	–	1.401	–	–
[4], c1 = 3.525e-05	–	0.003047	–	–	–
[4], c1 = 3.871e-05	–	0.002972	–	–	–
[4], c1 = 4.453e-05	–	0.002875	–	–	–
[4], c1 = 4.924e-05	–	0.002803	–	–	–
[4], c1 = 5.609e-05	–	0.00273	–	–	–
[4], c1 = 6.159e-05	–	0.002693	–	–	–
[4], c1 = 6.635e-05	–	0.002673	–	–	–
[4], c1 = 7.162e-05	–	0.002663	–	–	–
[4], c1 = 7.442e-05	–	0.002672	–	–	–
[4], c1 = 7.691e-05	–	0.002715	–	–	–
[4], c1 = 7.721e-05	–	0.002746	–	–	–
[4], c1 = 7.779e-05	–	0.002778	–	–	–
[4], c1 = 0.0142	1058.75	–	–	1344.6	0.597
[4], c1 = 0.0284	1058.9	–	–	1356.8	0.598
[4], c1 = 0.0426	1059.11	–	–	1373.9	0.601
[4], c1 = 0.0568	1059.4	–	–	1394.7	0.603
[4], c1 = 0.071	1059.75	–	–	1420.8	0.606
[4], c1 = 0.0852	1060.14	–	–	1451.4	0.608

[I-].[Li+] [lithium iodide] + C1COCO1
Settings	mass density [kg/m3]	molar conductivity [S·m2/mol]	refractive index	speed of sound [m/s]	viscosity [mPa·s]
[3], c1 = 0.0142	–	–	1.3988	–	–
[3], c1 = 0.0284	–	–	1.3997	–	–
[3], c1 = 0.0427	–	–	1.4004	–	–
[3], c1 = 0.057	–	–	1.4011	–	–
[3], c1 = 0.0714	–	–	1.4018	–	–
[3], c1 = 0.0858	–	–	1.4024	–	–
[4], c1 = 8.17e-06	–	0.001792	–	–	–
[4], c1 = 1.498e-05	–	0.000612	–	–	–
[4], c1 = 2.075e-05	–	0.000192	–	–	–
[4], c1 = 2.568e-05	–	0.000191	–	–	–
[4], c1 = 2.997e-05	–	0.000418	–	–	–
[4], c1 = 3.702e-05	–	0.000994	–	–	–
[4], c1 = 4.495e-05	–	0.001751	–	–	–
[4], c1 = 5.081e-05	–	0.00241	–	–	–
[4], c1 = 5.66e-05	–	0.003074	–	–	–
[4], c1 = 6.421e-05	–	0.003828	–	–	–
[4], c1 = 6.958e-05	–	0.004382	–	–	–
[4], c1 = 7.293e-05	–	0.004735	–	–	–
[4], c1 = 0.0142	1058.82	–	–	1350.6	0.601
[4], c1 = 0.0284	1059.06	–	–	1377.7	0.607
[4], c1 = 0.0427	1059.4	–	–	1416.8	0.614
[4], c1 = 0.057	1059.82	–	–	1469.7	0.621
[4], c1 = 0.0714	1060.32	–	–	1539.7	0.628
[4], c1 = 0.0858	1060.86	–	–	1630.2	0.635

CC#N [acetonitrile]
Settings	mass density [kg/m3]	refractive index	speed of sound [m/s]	viscosity [mPa·s]
[5]	–	1.3418	–	–
[6]	776.74	–	1281.5	0.343

C1COCO1 [1,3-dioxolane] + CC#N
Settings	mass density, [1] [kg/m3]	refractive index, [2]	speed of sound, [1] [m/s]	viscosity, [1] [mPa·s]
w2 = 0	1058.72	1.3974	1338.9	0.597
w2 = 0.25	979.95	1.3835	1324.6	0.533
w2 = 0.5	909.57	1.3696	1310.2	0.471
w2 = 0.75	841.47	1.3557	1295.8	0.407

C1COCO1 [1,3-dioxolane]
Settings	mass density [kg/m3]	refractive index	speed of sound [m/s]	viscosity [mPa·s]
[5]	–	1.3974	–	–
[6]	1058.72	–	1338.9	0.597

[Br-].[Li+] [lithium bromide] + C1COCO1
Settings	mass density [kg/m3]	molar conductivity [S·m2/mol]	refractive index	speed of sound [m/s]	viscosity [mPa·s]
[3], c1 = 0.0142	–	–	1.3984	–	–
[3], c1 = 0.0284	–	–	1.3993	–	–
[3], c1 = 0.0426	–	–	1.4001	–	–
[3], c1 = 0.0569	–	–	1.4008	–	–
[3], c1 = 0.0712	–	–	1.4014	–	–
[3], c1 = 0.0855	–	–	1.402	–	–
[4], c1 = 2.686e-05	–	0.002392	–	–	–
[4], c1 = 3.525e-05	–	0.002226	–	–	–
[4], c1 = 4.178e-05	–	0.002164	–	–	–
[4], c1 = 4.7e-05	–	0.002136	–	–	–
[4], c1 = 5.127e-05	–	0.002128	–	–	–
[4], c1 = 5.483e-05	–	0.002127	–	–	–
[4], c1 = 5.868e-05	–	0.002129	–	–	–
[4], c1 = 6.267e-05	–	0.002145	–	–	–
[4], c1 = 6.635e-05	–	0.002167	–	–	–
[4], c1 = 7.115e-05	–	0.002199	–	–	–
[4], c1 = 7.52e-05	–	0.002233	–	–	–
[4], c1 = 7.917e-05	–	0.002272	–	–	–
[4], c1 = 0.0142	1058.79	–	–	1347.4	0.599
[4], c1 = 0.0284	1059	–	–	1366.8	0.603
[4], c1 = 0.0426	1059.29	–	–	1394.6	0.607
[4], c1 = 0.0569	1059.65	–	–	1430.9	0.612
[4], c1 = 0.0712	1060.05	–	–	1475.6	0.617
[4], c1 = 0.0855	1060.52	–	–	1531.8	0.622
